The source of these data is PubChem BioAssay AID1552 (Sanford-Burnham Center for Chemical Genomics, 2009).

Calls of active or inactive are those of the source. The rule behind the calls is not given here.

The target of this assay is Ubiquitin-conjugating enzyme E2 N (Homo sapiens) (UniProt P61088). Description: NMR detection of UBE2N ligand binding – biophysical, purified protein (AID 1552). The note with it: NMR binding to purified UBE2N.
Ubiquitin-conjugating enzyme E2 N (Homo sapiens), sequence (P61088 whole entry, looked up): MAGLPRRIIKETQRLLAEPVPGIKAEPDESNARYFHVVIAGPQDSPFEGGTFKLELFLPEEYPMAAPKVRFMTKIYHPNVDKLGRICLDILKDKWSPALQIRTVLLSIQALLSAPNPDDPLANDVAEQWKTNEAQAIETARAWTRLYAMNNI
As for `COc1ccccc1NC(=O)CCC(=O)O`, the Kd is > 4 mM (inactive).
To `O=C(O)Cn1nnn(-c2ccccc2)c1=S` belongs > 4 mM (inactive); to `COc1cc(C/C=C/c2ccccc2)c(OC)cc1O`, > 4 mM (inactive).
As for `O=C(Nc1ccon1)c1ccccc1Cl`, the figure is > 4 mM (inactive); as for `O=[n+]1cc(C2=CC=CCC2)n([O-])c2c1CCCCC2`, > 4 mM (inactive); as for `COc1c2ccoc2c(OC)c2oc(=O)ccc12`, > 4 mM (inactive).
To `Cc1csc(NC(=O)c2cccs2)n1` belongs > 4 mM (inactive); to `Nc1cc(=O)[nH]c(SCC(=O)NCc2ccccc2)n1`, > 4 mM (inactive); to `CCCCC(Nc1n[nH]c(=O)[nH]c1=O)C(=O)O` (configuration not stated), > 4 mM (inactive).
`O=C(NCCO)c1cc2ccccc2c(=O)s1`: the Kd is > 4 mM (inactive).
As to `O=C(Nc1nccs1)c1cccnc1`, the Kd is > 4 mM (inactive).
`COC(=O)Nc1ccc2ncn(C)c(=O)c2c1`: the Kd was > 4 mM (inactive).
To `CCNC(=S)N1CCC(C(N)=O)CC1` belongs > 4 mM (inactive).
To `Cc1cc(C)n(C/C=C/Cn2nc(C)cc2C)n1` belongs > 4 mM (inactive); to `C=C(C)C1CC=C(CO)CC1` (configuration not stated), > 4 mM (inactive).
For `COc1cc2[nH]c(=S)n(C)c(=O)c2cc1OC`, the Kd is > 4 mM (inactive).
As for `COCC(=O)Nc1ccc(F)cc1F`, the figure is > 4 mM (inactive); as for `CC(C)=CCCC1(C)C=Cc2c(O)c3c(c(CC=C(C)C)c2O1)OC12C(=CC4CC1C(C)(C)OC2(C/C=C(/C)C(=O)O)C4=O)C3=O` (configuration not stated), > 4 mM (inactive); as for `CC1(C)C2CC(=O)[C@]3(C)C(CC[C@@]4(C)[C@H](c5ccoc5)OC(=O)[C@H]5O[C@]543)[C@@]2(C)C(=O)C[C@H]1O` (some centres not stated), > 4 mM (inactive).
As for `O=C(NCc1ccccn1)c1ccc(Cl)cc1Cl`, the figure is > 4 mM (inactive).
In the case of `CC(=O)Nn1c(=O)[nH]c2ccccc2c1=O`, the Kd was > 4 mM (inactive).
To `CC1(C)C=CC(=O)[C@@]2(C)C1CC(=O)[C@]1(C)C2CC[C@@]2(C)[C@H](c3ccoc3)OC(=O)C3OC321` (some centres not stated) belongs > 4 mM (inactive); to `O=C(O)CCN1CCOCC1`, > 4 mM (inactive).
As for `C(=C\c1ccccc1)/C=N/n1cnnc1`, the figure is > 4 mM (inactive); as for `COc1ccc2c(c1)OC/C(=C/c1ccc(OC)c(OC)c1)C2=O`, > 4 mM (inactive).
To `Cn1c2c(c(=O)n(C)c1=O)CN(Cc1ccco1)CN2` belongs > 4 mM (inactive).
With `Cc1c(C(=O)Nc2ccccn2)oc2ccccc12`, the Kd is > 4 mM (inactive).
As for `CCc1c(C)n([O-])c2c([n+]1=O)CCC2`, the figure is > 4 mM (inactive); as for `C/C=C/COc1nc2c(c(=O)n(C)c(=O)n2C)n1C`, > 4 mM (inactive).
As for `COc1ccc2c(CC(=O)O)coc2c1`, the figure is > 4 mM (inactive); as for `CN1CCC(NC(=O)c2ccccc2[N+](=O)[O-])CC1`, > 4 mM (inactive); as for `O=c1cc(-c2cc(O)c(O)c(O)c2)oc2cc(O)cc(O)c12`, > 4 mM (inactive).
To `O=C(O)CC12CC3CC(CC(O)(C3)C1)C2` belongs > 4 mM (inactive).
As to `COc1cc2c3cc1Oc1cc(ccc1O)C[C@@H]1c4c(cc(OC)c(O)c4Oc4ccc(cc4)C[C@@H]3N(C)CC2)CC[N+]1(C)C`, the Kd was > 4 mM (inactive).
Consider `COC(=O)c1cc2cc(N)ccc2s1`, for which the Kd was > 4 mM (inactive).
`Cc1ccc(C)c(C(=O)NCc2ccncc2)c1`: the Kd was > 4 mM (inactive).
To `CC1CN=C(Nc2ccccc2)S1` (configuration not stated) belongs > 4 mM (inactive); to `CC(=O)CC(=O)N1C(O)CC[N+]1(C)C` (configuration not stated), > 4 mM (inactive); to `NC(=O)C1CC2C=CC1C2` (configuration not stated), > 4 mM (inactive).
As for `O=C1CC(=O)N(c2ccccc2F)C(=S)N1`, the figure is > 4 mM (inactive); as for `Cc1ccccc1NC(=O)N1CCOCC1`, > 4 mM (inactive); as for `O=c1c2ccccc2nc2n1CCS2`, > 4 mM (inactive).
To `O=C(NCc1ccco1)c1cccc(F)c1` belongs > 4 mM (inactive).
In the case of `C=C(C)CSc1nc2nc(C)cc(C)n2n1`, the Kd was > 4 mM (inactive).
As for `C/C(=C\CO)CC[C@H](C)CCC[C@H](C)CCCC(C)C`, the figure is > 4 mM (inactive); as for `O=C(c1ccco1)N1CCN(c2ccc(Cl)cc2)CC1`, > 4 mM (inactive).
To `Cc1cc(C)nc(N(C#N)Cc2ccccc2)n1` belongs > 4 mM (inactive).
In the case of `CC(C(N)=O)N1C(=O)c2ccccc2C1=O` (configuration not stated), the Kd was > 4 mM (inactive).
As for `CC(=O)O[C@@H]1c2c(ccc3ccc(=O)oc23)OC(C)(C)[C@@H]1OC(=O)CC(C)C`, the figure is > 4 mM (inactive).
To `COc1ccc(O)c(-c2cn[nH]c2-c2cccs2)c1` belongs > 4 mM (inactive); to `OC12C=CC(CC1)CC2`, > 4 mM (inactive); to `CC1(C(=O)O)CC2C=CC1C2` (configuration not stated), > 4 mM (inactive).
To `CC(=O)N1CCN(c2ccc(N)cc2)CC1` belongs > 4 mM (inactive); to `CC(=O)c1cnc2nc(C(F)(F)F)nn2c1C`, > 4 mM (inactive); to `CNC(=O)COc1cccc2c1CCNC2=O`, > 4 mM (inactive).
`CCCCCC/C=C\CCCCCCCc1cccc(O)c1C(=O)O`: the Kd was > 4 mM (inactive).
As for `O=C1C2C3CCC(O3)C2C(=O)N1c1cccc(F)c1` (configuration not stated), the figure is > 4 mM (inactive).
To `O=C(Nc1nncs1)c1c(F)c(F)c(F)c(F)c1F` belongs > 4 mM (inactive); to `CSc1nc2cc(F)c(F)cc2n1C`, > 4 mM (inactive).
As for `CSc1nnc2c(n1)OC(C)=Nc1ccccc1-2`, the figure is > 4 mM (inactive); as for `CC(=O)NC12CC3CC(C)(C1)CC(NC(C)=O)(C3)C2`, > 4 mM (inactive).
As for `CC[C@@]1(O)C[C@H](O)c2c(cc3c(c2O)C(=O)c2c(O)ccc(O)c2C3=O)[C@H]1C(=O)OC`, the Kd is > 4 mM (inactive).
As for `NCc1csc(-c2ccccc2)n1`, the figure is > 4 mM (inactive); as for `CCC(=O)OC1[C@@H]2CC3=C4CC(=O)O[C@@H](c5ccoc5)[C@]4(C)CCC3C(C)(C2=O)[C@@H](CC(=O)OC)C1(C)C` (some centres not stated), > 4 mM (inactive).
As for `Cc1sc2nc(SC3CCOC3=O)[nH]c(=O)c2c1C` (configuration not stated), the figure is > 4 mM (inactive); as for `O=c1n(-c2ccccc2)c(=O)n2n1CCCC2`, > 4 mM (inactive); as for `CC(=O)Nc1sccc1C(N)=O`, > 4 mM (inactive).
As for `O=C(NC12CC3CC(CC(C3)C1)C2)c1cnccn1`, the figure is > 4 mM (inactive).
On to `O=C(Nc1nc2ccccc2s1)c1ccc(=O)[nH]n1`, for which the Kd was > 4 mM (inactive).
As for `Cc1ccc(-n2ncc(C#N)c2/N=C/N(C)C)cc1`, the figure is > 4 mM (inactive); as for `CC(C1OC(C)(C)C(O)C1O)[C@@H]1CC[C@]2(C)C3=CCC4C(C)(C)C(=O)CC[C@]4(C)C3CC[C@@]12C` (some centres not stated), > 4 mM (inactive); as for `Cc1nn2c(=O)nc3sc4c(c3c2[nH]c1=O)CCCC4`, > 4 mM (inactive).
